Experimental data reported in patent US6046331A, “Imidazolones and their use in treating benign prostatic hyperplasia and other disorders” (Synaptic Pharmaceutical Corporation, priority 1998, dated 2000).

What was measured:
human α1b receptor = target: T1, human α1b receptor (Homo sapiens, UniProt P35368); assay: Radioligand binding ([^3 H]prazosin) at cloned human α1b receptor; settings: LM(tk-) cell membranes, read-out: hα1b Ki
T1 construct: The entire coding region of α1b (1563 bp); expressed in transfected cells; host or cells: LM(tk-) mouse fibroblast line L-α1B, ATCC CR 11139
T1 sequence (P35368 1-520): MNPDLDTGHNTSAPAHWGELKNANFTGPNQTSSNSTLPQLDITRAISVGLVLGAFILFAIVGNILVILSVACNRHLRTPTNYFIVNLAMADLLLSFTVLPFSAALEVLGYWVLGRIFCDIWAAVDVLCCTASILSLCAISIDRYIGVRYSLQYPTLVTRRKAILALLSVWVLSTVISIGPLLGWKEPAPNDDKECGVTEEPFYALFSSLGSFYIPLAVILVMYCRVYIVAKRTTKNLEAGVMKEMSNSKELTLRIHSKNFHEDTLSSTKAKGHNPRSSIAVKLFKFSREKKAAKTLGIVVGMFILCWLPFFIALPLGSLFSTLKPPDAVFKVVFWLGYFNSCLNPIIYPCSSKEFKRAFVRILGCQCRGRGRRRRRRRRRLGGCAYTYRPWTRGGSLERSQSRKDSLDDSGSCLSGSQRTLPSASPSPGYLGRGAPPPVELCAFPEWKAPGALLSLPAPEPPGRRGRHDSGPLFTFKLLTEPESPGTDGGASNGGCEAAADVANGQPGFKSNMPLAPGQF
Protocol: (§1) Binding affinities were measured for selected compounds of the invention at six cloned human α1 and α2 receptor subtypes, as well as at the L-type calcium channel. The protocols for these experiments are given below.
(§2) The activity of compounds at the different human receptors was determined in vitro using cultured cell lines that selectively express the receptor of interest. These cell lines were prepared by transfecting the cloned cDNA or cloned genomic DNA or constructs containing both genomic DNA and cDNA encoding the human α-adrenergic receptors as follows:
α1b Human Adrenergic Receptor: The entire coding region of α1b (1563 bp), including 200 base pairs and 5' untranslated sequence (5' UT) and 600 bp of 3' untranslated sequence (3' UT), was cloned into the EcoRI site of pCEXV-3 eukaryotic expression vector. The construct involved ligating the full-length containing EcoRI brainstem cDNA fragment from λ ZapII into the expression vector. Stable cell lines were selected as described above. The cell line used herein was designated L-α1B and was deposited with the American Type Culture Collection, 12301 Parklawn Drive, Rockville, Md. 20852, U.S.A. under the provisions of the Budapest Treaty for the International Recognition of the Deposit of Microorganisms for the Purposes of Patent Procedure. The cell line L-α1B was accorded ATCC Accession No. CR 11139, on Sep. 29, 1992.
(§3) Radioligand Binding Assays for α1 receptors:
(§4) Transfected cells from culture flasks were scraped into 5 ml of 5 mM Tris-HCl, 5 mM EDTA, pH 7.5, and lysed by sonication. The cell lysates were centrifuged at 1000 rpm for 5 min at 4° C., and the supernatant was centrifuged at 30,000× g for 20 min at 4° C. The pellet was suspended in 50 mM Tris-HCl, 1 mM MgCl2, and 0.1% ascorbic acid at pH 7.5. Binding of the α1 antagonist [^3 H]prazosin (0.5 nM, specific activity 76.2 Ci/mmol) to membrane preparations of LM(tk-) cells was done in a final volume of 0.25 ml and incubated at 37° C. for 20 min. Nonspecific binding was determined in the presence of […] phentolamine. The reaction was stopped by filtration through GF/B filters using a cell harvester. Inhibition experiments, routinely consisting of 7 concentrations of the tested compounds, were analyzed using a non-linear regression curve-fitting computer program to obtain Ki values.
(§5) The compounds described above were assayed using cloned human alpha adrenergic receptors. […] The binding affinities of several compounds are illustrated in the following table.
(§6) Binding affinities of selected compounds of the present invention at cloned human α1d, α1b and α1a receptors. (h=human)

human α1a receptor = target: T2, human α1a receptor (Homo sapiens, UniProt P35348); assay: Radioligand binding ([^3 H]prazosin) at cloned human α1a receptor; settings: LM(tk-) cell membranes, read-out: hα1a Ki
T2 construct: The entire coding region of α1a (1401 bp); expressed in transfected cells; host or cells: LM(tk-) mouse fibroblast line L-α1C (old nomenclature), ATCC CR 11140
T2 sequence (P35348 1-466): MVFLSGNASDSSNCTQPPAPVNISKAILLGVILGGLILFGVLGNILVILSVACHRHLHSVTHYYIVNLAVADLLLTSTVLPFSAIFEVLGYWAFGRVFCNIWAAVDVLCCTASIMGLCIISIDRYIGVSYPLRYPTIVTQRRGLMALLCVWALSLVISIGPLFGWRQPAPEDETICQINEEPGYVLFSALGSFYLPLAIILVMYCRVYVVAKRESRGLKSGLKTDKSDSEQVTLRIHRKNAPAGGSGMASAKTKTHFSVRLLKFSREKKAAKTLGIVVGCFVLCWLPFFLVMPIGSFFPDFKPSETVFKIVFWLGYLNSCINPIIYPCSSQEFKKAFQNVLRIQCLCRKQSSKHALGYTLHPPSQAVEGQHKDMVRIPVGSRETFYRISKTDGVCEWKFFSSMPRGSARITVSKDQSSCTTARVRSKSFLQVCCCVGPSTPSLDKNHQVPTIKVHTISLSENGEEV
Protocol: as §1, §2
α1a Human Adrenergic Receptor: The entire coding region of α1a (1401 bp), including 400 base pairs of 5' untranslated sequence (5' UT) and 200 bp of 3' untranslated sequence (3' UT), was cloned into the KpnI site of the polylinker-modified pCEXV-3-derived eukaryotic expression vector, EXJ.RH. The construct involved ligating three partial overlapping fragments: a 5' 0.6 kb HincII genomic clone, a central 1.8 EcoRI hippocampal cDNA clone, and a 3' 0.6Kb PstI genomic clone. The hippocampal cDNA fragment overlaps with the 5' and 3' genomic clones so that the HincII and PstI sites at the 5' and 3' ends of the cDNA clone, respectively, were utilized for ligation. This full-length clone was cloned into the KpnI site of the expression vector, using the 5' and 3' KpnI sites of the fragment, derived from vector (i.e., pBluescript) and 3'-untranslated sequences, respectively. Stable cell lines were selected as described above. The stable cell line expressing the human α1a receptor used herein was designated L-α1C (old nomenclature) and was deposited with the American Type Culture Collection, 12301 Parklawn Drive, Rockville, Md. 20852, U.S.A. under the provisions of the Budapest Treaty for the International Recognition of the Deposit of Microorganisms for the Purposes of Patent Procedure. The cell line expressing the human α1a receptor was accorded Accession No. CR 11140, on Sep. 25, 1992.
as §3, §4, §5, §6

SMILES	Ki (human α1b receptor)	Ki (human α1a receptor)
COC(=O)c1[nH]c(=O)n(CCCCCN2CCC(C(=O)OC)(c3ccccc3)CC2)c1-c1ccc(F)c(F)c1 [Compound 1, 1-(5-(4-Methoxycarbonyl-4-phenylpiperidin-1-yl)pent-1-yl)-4-methoxycarbonyl-5-(3,4-difluorophenyl)-2,3-dihydro-2(1H)-imidazolone]	0.309 µM	0.0018 µM
COC(=O)c1[nH]c(=O)n(CCCCCN2CCC(C#N)(c3ccccc3)CC2)c1-c1ccc(F)c(F)c1 [Compound 2, 5-(3,4-Difluorophenyl)-2,3-dihydro-4-methoxycarbonyl-1-(5-(4-cyano-4-phenylpiperidin-1-yl)pent-1-yl)-2(1H)-imidazolone]	0.347 µM	0.0041 µM
COC(=O)c1[nH]c(=O)n(CCCCCN2CCC(O)(c3ccccc3)CC2)c1-c1ccc(F)c(F)c1 [Compound 3, 5-(3,4-Difluorophenyl)-2,3-dihydro-4-methoxycarbonyl-1-(5-(4-hydroxy-4-phenylpiperidin-1-yl)pent-1-yl)-2(1H)-imidazolone]	1.58 µM	0.0211 µM
COC(=O)c1[nH]c(=O)n(CCCCCN2CCN(c3ccccc3C(N)=O)CC2)c1-c1cc(F)c(F)c(F)c1 [Compound 4, 1-(5-(4-(2-Aminocarbonylphenyl)piperazin-1-yl)pent-1-yl)-5-(3,4,5-trifluorophenyl)-2,3-dihydro-4-methoxycarbonyl-2(1H)-imidazolone]	0.159 µM	0.0015 µM
COC(=O)c1ccccc1N1CCN(CCCCCn2c(-c3cc(F)c(F)c(F)c3)c(C(=O)OC)[nH]c2=O)CC1 [Compound 5, 5-(3,4,5-Trifluorophenyl)-2,3-dihydro-4-methoxycarbonyl-1-(5-(4-(2-methoxycarbonylphenyl)piperazin-1-yl)pent-1-yl)-2(1H)-imidazolone]	0.0117 µM	0.0001 µM
CCOC(=O)c1[nH]c(=O)n(CCCCCN2CCN(c3ccccc3C(N)=O)CC2)c1-c1ccc(F)c(F)c1 [Compound 6, 1-(5-(4-(2-Aminocarbonylphenyl)piperazin-1-yl)pent-1-yl)-4-ethoxycarbonyl-5-(3,4-difluorophenyl)-2,3-dihydro-2(1H)-imidazolone]	0.11 µM	0.0014 µM
COC(=O)c1[nH]c(=O)n(CCCCCN2CCN(c3ccccc3C(N)=O)CC2)c1-c1cc(F)c(F)cc1F [Compound 7, 1-(5-(4-(2-Aminocarbonylphenyl)piperazin-1-yl)pent-1-yl)-5-(2,4,5-trifluorophenyl)-2,3-dihydro-4-methoxylcarboxy-2(1H)-imidazolone]	0.111 µM	0.0012 µM
COC(=O)c1[nH]c(=O)n(CCCCCN2CCC(C(=O)OC)(c3ccccc3)CC2)c1Cc1ccc(F)c(F)c1 [Compound 37, 5-(3,4-Difluorobenzyl)-2,3-dihydro-4-methoxycarbonyl-1-(5-(4-methoxycarbonyl-4-phenylpiperidin-1-yl)pent-1-yl)-2(1H) -imidazolone]	0.558 µM	0.0045 µM
